The numbers were not newly measured in patent US20210319872A1, “DRUG AND DEVICE COMBINATION PRODUCTS WITH IMPROVED SAFETY AND EFFICACY PROFILES” (priority 2016, published 2021), which cites them from elsewhere.

Structures are written as SMILES. Where two headings read alike, the source gives them in different places.

For the compound `OCCOCCN1CCN(C2=Nc3ccccc3Sc3ccccc32)CC1` [Seroquel (Quetiapine)], for the setting “in vivo”, the Abdominal pain entry was “Gastrointestinal: Abdominal pain (3% to 7%), Constipation (2% to”; the Agitation entry is on record as “Psychiatric: Agitation (6% to 20%)”; the Asthenia entry is recorded as “Neurologic: Asthenia (Up to 10%), Dizziness (8% to 19%),”; the Backache entry was “Musculoskeletal: Backache (3% to 5%)”. For the same compound, where the note is “in vivo”, the Dizziness entry is listed as “Neurologic: Asthenia (Up to 10%), Dizziness (8% to 19%),”; the Extrapyramidal disease entry is “Extrapyramidal disease (1.1% to 12.9%), Headache (17% to 21%),”; the Fatigue entry is “Other: Fatigue (3% to 14%), Pain (7%)”; the Headache result is given as “Extrapyramidal disease (1.1% to 12.9%), Headache (17% to 21%),”. In addition, under “in vivo”, the Increased appetite is listed as 11%), Increased appetite (2% to 12%), Indigestion (2% to 7%),; the Increased liver enzymes result is recorded as “Hepatic: Increased liver enzymes (1% to 6%)”; the Indigestion is reported as 11%), Increased appetite (2% to 12%), Indigestion (2% to 7%),; the Insomnia entry was “Insomnia (8% to 12%), Lethargy (1% to 5%), Somnolence (18% to”. For the same compound, where the note is “in vivo”, the Lethargy entry is listed as “Insomnia (8% to 12%), Lethargy (1% to 5%), Somnolence (18% to”; the Nasal congestion entry is reported as “Respiratory: Nasal congestion (3% to 5%), Pharyngitis (4% to 6%)”; the Nausea result is “Nausea (Pediatric, 6% to 10%), Vomiting (Pediatric, 7% to 8%),”; the Neutropenia entry is “Hematologic: Agranulocytosis, Leukopenia, Neutropenia (0.3% to”. Besides, where the note is “in vivo”, the Orthostatic hypotension entry is on record as “Orthostatic hypotension (Up to 7%), Tachycardia (Up to 6%)”; the Pain entry is on record as “Other: Fatigue (3% to 14%), Pain (7%)”; the Pharyngitis entry is given as “Respiratory: Nasal congestion (3% to 5%), Pharyngitis (4% to 6%)”; the “Prolonged QT interval” value was “Cardiovascular: Prolonged QT interval (0.1% to less than 1%),”. Further, under “in vivo”, the Seizure result is given as “Neurologic: Seizure (0.05% to 0.5%), Tardive dyskinesia”; the “Serious side effect, Cardiovascular” value is listed as “Sudden cardiac death, Syncope (0.3% to 1%)”; the “Serious side effect, Endocrine metabolic” value is listed as “Endocrine metabolic: Diabetic ketoacidosis”; the “Serious side effect, Gastrointestinal” value was “Gastrointestinal: Pancreatitis”. For the same compound, under “in vivo”, the “Serious side effect, Hematologic” value is “Hematologic: Agranulocytosis, Leukopenia, Neutropenia (0.3% to”; the “Serious side effect, Immunologic” value is recorded as “Immunologic: Anaphylaxis”; the “Serious side effect, Neurologic” value is listed as “Neurologic: Seizure (0.05% to 0.5%), Tardive dyskinesia”; the “Serious side effect, Other” value is reported as “Other: Neuroleptic malignant syndrome”. For the same compound, where the note is “in vivo”, the “Serious side effect, Psychiatric” value was “Psychiatric: Suicidal thoughts”; the “Serious side effect, Reproductive” value is recorded as “Reproductive: Priapism”; the Serum cholesterol raised entry is recorded as “Endocrine metabolic: Serum cholesterol raised (7% to 18%), Serum”; the Serum triglycerides raised result is “triglycerides raised (8% to 28%), Weight gain (3% to 28%)”. For the same compound, under “in vivo”, the Somnolence entry is given as “Insomnia (8% to 12%), Lethargy (1% to 5%), Somnolence (18% to”; the Syncope entry was “Sudden cardiac death, Syncope (0.3% to 1%)”; the Tachycardia entry is given as “Orthostatic hypotension (Up to 7%), Tachycardia (Up to 6%)”; the Tremor was 57%), Tremor (2% to 8%). In addition, under “in vivo”, the Vomiting entry is “Nausea (Pediatric, 6% to 10%), Vomiting (Pediatric, 7% to 8%),”; the Weight gain result is listed as “triglycerides raised (8% to 28%), Weight gain (3% to 28%)”; the Xerostomia result was “Xerostomia (Adult, 9% to 44%; pediatric, 4% to 10%)”.

Regarding `O=C(Nc1c(Cl)cncc1Cl)c1ccc(OC(F)F)c(OCC2CC2)c1` [Daliresp], for the setting “in vivo”, the Backache entry was “Musculoskeletal: Backache (3.2%)”, the Decrease in appetite is listed as 2.1%, the Diarrhea is listed as 9.5% and the Dizziness is listed as 2.1%. Besides, for the setting “in vivo”, the Headache is 4.4%, the Influenza result was “Immunologic: Influenza (2.8%)”, the Insomnia is reported as 2.4% and the Nausea result is “Nausea (4.7%)”. For the same compound, for the setting “listed without frequency”, the “Serious side effect, Psychiatric” value is “Psychiatric: Suicidal thoughts”.

Turning to `CCOC(=O)[C@H](CCc1ccccc1)N[C@@H](C)C(=O)N1Cc2ccccc2C[C@H]1C(=O)O` [Quinapril (Accupril)], under “in vivo”, the Chest pain result is “Cardiovascular: Chest pain (2.4%), Hypotension (2.9%)”; the Cough entry was “Respiratory: Cough (2% to 4.3%)”; the Dizziness result is recorded as “Neurologic: Dizziness (3.9% to 7.7%), Headache (1.7% to 6.9%)”; the Fatigue entry was “Other: Fatigue (2.6%)”. Besides, under “in vivo”, the Headache entry is given as “Neurologic: Dizziness (3.9% to 7.7%), Headache (1.7% to 6.9%)”; the Hypotension entry is listed as “Cardiovascular: Chest pain (2.4%), Hypotension (2.9%)”; the Nausea and vomiting entry was “Gastrointestinal: Nausea and vomiting (1.4% to 2.4%)”; the “Serum blood urea nitrogen raised” value is “Renal: Serum blood urea nitrogen raised (2% to 8%), Serum”. In addition, the Serum creatinine raised result (in vivo) is given as “creatinine raised (2% to 11%)”.

Consider `C[C@H](O)[C@H](O)[C@H]1CNc2[nH]c(N)nc(=O)c2N1.Cl.Cl` [Kuvan], for which, where the note is “in vivo”, the Cough result was “Respiratory: Cough (4% or more), Nasal congestion (4% or more),”; the Diarrhea result is reported as “Gastrointestinal: Diarrhea (4% or more), Vomiting (4% or more)”; the Headache result is given as “Neurologic: Headache (4% or greater)”; the Nasal congestion entry is “Respiratory: Cough (4% or more), Nasal congestion (4% or more),”. Further, where the note is “in vivo”, the Nasal discharge entry is “Nasal discharge (4% or more), Pain in throat (4% or more), Upper”; the Pain in throat result is “Nasal discharge (4% or more), Pain in throat (4% or more), Upper”; the “Serious side effect, Cardiovascular” value is listed as “Cardiovascular: Myocardial infarction”; the “Serious side effect, Gastrointestinal” value is “Gastrointestinal: Gastrointestinal hemorrhage”. In addition, for the setting “in vivo”, the “Serious side effect, Hematologic” value is recorded as “Hematologic: Hemorrhage, Post-procedural”; the “Serious side effect, Neurologic” value was “Neurologic: Seizure”; the “Serious side effect, Respiratory” value was “Respiratory: Respiratory failure”; the Upper respiratory infection result was “respiratory infection (17%)”. Moreover, the Vomiting entry (in vivo) is reported as “Gastrointestinal: Diarrhea (4% or more), Vomiting (4% or more)”.

Take `COc1ccc2c3c1O[C@H]1[C@@H](O)C=C[C@H]4[C@@H](C2)N(C)CC[C@@]341` [Codeine]: for the setting “in vivo”, the “Common side effect, Gastrointestinal” value is “Gastrointestinal: Constipation, Nausea, Vomiting”; the “Common side effect, Neurologic” value is reported as “Neurologic: Dizziness, Lightheadedness, Sedated, Somnolence”; the “Common side effect, Respiratory” value is “Respiratory: Dyspnea”; the “Serious side effect, Cardiovascular” value was “Cardiovascular: Hypotension”. Besides, under “in vivo”, the “Serious side effect, Gastrointestinal” value was “Gastrointestinal: Bowel obstruction, Pancreatitis”; the “Serious side effect, Neurologic” value is on record as “Neurologic: CSF pressure: raised, Seizure”; the “Serious side effect, Respiratory” value was “Respiratory: Respiratory depression”.

Turning to `CCCCc1ncc(/C=C(\Cc2cccs2)C(=O)O)n1Cc1ccc(C(=O)O)cc1` [Eprosartan (Teveten)], where the note is “in vivo”, the Dizziness result is recorded as “Neurologic: Dizziness (3.8%)”, the Fatigue entry is reported as “Other: Fatigue (1.4%)”, the Myalgia entry is listed as “Musculoskeletal: Myalgia (1.9%)” and the Neutropenia entry was “Hematologic: Neutropenia (1.3%)”. Further, the “Serious side effects, listed without incidence or only as rare” value (in vivo) was “Dermatologic: Edema of face (rare)”.

For the compound `COc1ccc([C@@H]2Sc3ccccc3N(CCN(C)C)C(=O)[C@@H]2OC(C)=O)cc1` [Diltiazem (Cardizem, Tiazac)], under “in vivo”, the Bradyarrhythmia entry is reported as “Cardiovascular: Bradyarrhythmia (1.7% to 3.6%), Peripheral”; the Congestive heart failure entry is given as “Cardiovascular: Congestive heart failure (less than 2%), Heart”; the Cough result is given as “Respiratory: Cough (2%)”; the Dizziness result is “Neurologic: Dizziness (3.5% to 6.4%), Headache (4.6%)”. Moreover, for the setting “in vivo”, the Fatigue entry is “Other: Fatigue (4.8%)”; the Headache result is listed as “Neurologic: Dizziness (3.5% to 6.4%), Headache (4.6%)”; the Peripheral edema entry is “edema (4.6% to 8%)”.

Regarding `NC(=O)N1c2ccccc2C=Cc2ccccc21` [Equetro], where the note is “in vivo”, the Asthenia is listed as 8%, the Ataxia is given as 15%, the Blurred vision is 6% and the Constipation was 10%. Where the note is “in vivo”, the Dizziness was 44%, the Nausea is given as 29%, the Pruritus is listed as 8% and the Rash is reported as 7%. For the same compound, under “in vivo”, the Vomiting was 18% and the Xerostomia is given as 8%. For the same compound, where the note is “listed without frequency”, the “Common side effect, Cardiovascular” value is given as “Cardiovascular: Hypotension”; the “Common side effect, Neurologic” value is “Somnolence”; the “Common side effect, Ophthalmic” value is reported as “Nystagmus”; the “Serious side effect, Dermatologic” value is “Stevens-Johnson syndrome”. Besides, for the setting “listed without frequency”, the “Serious side effect, Gastrointestinal” value is listed as “Gastrointestinal: Pancreatitis”; the “Serious side effect, Immunologic” value is on record as “Immunologic: Drug hypersensitivity syndrome”; the “Serious side effect, Neurologic” value was “Neurologic: Acute intermittent porphyria”; the “Serious side effect, Other” value was “Other: Angioedema”. In addition, for the setting “listed without frequency”, the “Serious side effect, Respiratory” value was “Respiratory: Pulmonary hypersensitivity”.

Take `CC(C)NCC(O)c1ccc(NS(C)(=O)=O)cc1` (stereo not shown) [Sotalol (Betapace)]: where the note is “in vivo”, the Bradyarrhythmia was 12.3% to 16%; pediatric, 4%), Cardiac dysrhythmia (5%),; the Cardiac dysrhythmia is 12.3% to 16%; pediatric, 4%), Cardiac dysrhythmia (5%),; the Cerebrovascular accident entry was “Neurologic: Cerebrovascular accident (1%)”; the Chest pain result was “Cardiovascular: Chest pain (Adult, 16%; pediatric, 4%),”. Moreover, under “in vivo”, the Congestive heart failure result is “Congestive heart failure (1.2% to 3.3%), Heart failure (5%),”; the Disturbance of consciousness result is on record as “Neurologic: Disturbance of consciousness (4%), Dizziness (13.1%”; the Dizziness result was “Neurologic: Disturbance of consciousness (4%), Dizziness (13.1%”; the Dyspnea entry is “Respiratory: Dyspnea (9.2% to 21%)”. Further, where the note is “in vivo”, the Fatigue result was “Other: Fatigue (18.9% to 20%)”; the Heart failure result is given as “Congestive heart failure (1.2% to 3.3%), Heart failure (5%),”; the Lightheadedness entry is given as “Lightheadedness (12%)”; the Rash entry is recorded as “Dermatologic: Rash (5%)”. Besides, under “in vivo”, the Torsades de pointes entry is “Prolonged QT interval, Torsades de pointes (0.5% to 4%)”.
